According to patent US8633225B2, “Piperidinium compounds and cosmetic compositions containing them” (Beiersdorf AG, priority 2006, dated 2014):

Assay: inhibiting or reducing perspiration (antihidrotic effect); statement only, no test described
Settings: qualitative statement

## CCC(C)C(C(=O)OC1CC[N+](C)(C)CC1)c1ccccc1.[Br-] (stereo not shown) [4-{[2-(2-butyl)-2-phenylacetyl)oxy]}-1,1-dimethyl-piperidinium bromide]
  efficacy in inhibiting perspiration: very good efficacy in inhibiting perspiration
